Test results reported in US5162330A, “Dynemicin C antibiotic, its triacetyl derivative and pharmaceutical composition containing same” (Bristol-Myers Squibb Co., priority 1990, dated 1992).
In brackets after ≈: the same amount, converted by molar mass.

Tests used:
E. cloacae IPM-12 = test: In vitro antibacterial MIC; type: cell-based; conditions: Enterobacter cloacae, IPM12, pH 7; E. cloacae IPM-12; nutrient agar pH7, 32° C., 18 hours; read-out: MIC
Procedure: (§1) The minimum inhibitory concentration (MIC) was determined by a two-fold serial tube dilution method using nutrient agar (pH7, Difco containing 10^5 cfu/ml).

E. coli 255 = test: In vitro antibacterial MIC; type: cell-based; conditions: Escherichia coli, pH 7; E. coli 255; nutrient agar pH7, 32° C., 18 hours; read-out: MIC
Procedure: as §1

E. coli Juhl A15119 = test: In vitro antibacterial MIC; type: cell-based; conditions: Escherichia coli, JUHLA15119, pH 7; E. coli Juhl A15119; nutrient agar pH7, 32° C., 18 hours; read-out: MIC
Procedure: as §1

E. faecalis A9808 = test: In vitro antibacterial MIC; type: cell-based; conditions: Enterococcus faecalis, pH 7; E. faecalis A9808; nutrient agar pH7, 32° C., 18 hours; read-out: MIC
Procedure: as §1

E. faecium A24817 = test: In vitro antibacterial MIC; type: cell-based; conditions: Enterococcus faecium, pH 7, nutrient agar pH7, 32° C., 18 hours
Procedure: as §1

K. pneumoniae PCI 602 = test: In vitro antibacterial MIC; type: cell-based; conditions: Klebsiella pneumoniae, PCI602, pH 7; K. pneumoniae PCI 602; nutrient agar pH7, 32° C., 18 hours; read-out: MIC
Procedure: as §1

M. luteus PCI 1001 = test: In vitro antibacterial MIC; type: cell-based; conditions: Micrococcus luteus, PCI1001, pH 7, nutrient agar pH7, 32° C., 18 hours
Procedure: as §1

M. morganii I510 = test: In vitro antibacterial MIC; type: cell-based; conditions: Morganella morganii, pH 7; M. morganii I510; nutrient agar pH7, 32° C., 18 hours; read-out: MIC
Procedure: as §1

P. aeruginosa A20599 = test: In vitro antibacterial MIC; type: cell-based; conditions: Pseudomonas aeruginosa, pH 7; P. aeruginosa A20599; nutrient agar pH7, 32° C., 18 hours; read-out: MIC
Procedure: as §1

P. aeruginosa A9843A = test: In vitro antibacterial MIC; type: cell-based; conditions: Pseudomonas aeruginosa, 18 h, pH 7
Procedure: as §1

P. aeruginosa IPM-8 = test: In vitro antibacterial MIC; type: cell-based; conditions: Pseudomonas aeruginosa, IPM8, pH 7; P. aeruginosa IPM-8; nutrient agar pH7, 32° C., 18 hours; read-out: MIC
Procedure: as §1

P. aeruginosa IPM-9 = test: In vitro antibacterial MIC; type: cell-based; conditions: Pseudomonas aeruginosa, IPM9, pH 7; P. aeruginosa IPM-9; nutrient agar pH7, 32° C., 18 hours; read-out: MIC
Procedure: as §1

P. aeruginosa KKA19 = test: In vitro antibacterial MIC; type: cell-based; conditions: Pseudomonas aeruginosa, pH 7, nutrient agar pH7, 32° C., 18 hours
Procedure: as §1

P. cepecia A21213 = test: In vitro antibacterial MIC; type: cell-based; conditions: 18 h, pH 7
Procedure: as §1

P. cepecia No. 651 = test: In vitro antibacterial MIC; type: cell-based; conditions: 18 h, pH 7
Procedure: as §1

P. mirabilis IFO 3849 = test: In vitro antibacterial MIC; type: cell-based; conditions: Proteus mirabilis, IFO3849, pH 7; P. mirabilis IFO 3849; nutrient agar pH7, 32° C., 18 hours; read-out: MIC
Procedure: as §1

P. rettgeri IPM-14 = test: In vitro antibacterial MIC; type: cell-based; conditions: Providencia rettgeri, IPM14, pH 7; P. rettgeri IPM-14; nutrient agar pH7, 32° C., 18 hours; read-out: MIC
Procedure: as §1

P. vulgaris IPM-13 = test: In vitro antibacterial MIC; type: cell-based; conditions: Proteus vulgaris, IPM13, pH 7; P. vulgaris IPM-13; nutrient agar pH7, 32° C., 18 hours; read-out: MIC
Procedure: as §1

S. aureus A15036 (MRSA) = test: In vitro antibacterial MIC; type: cell-based; conditions: Staphylococcus aureus, 18 h, pH 7
Procedure: as §1

S. aureus IPM-24 (MRSA) = test: In vitro antibacterial MIC; type: cell-based; conditions: Staphylococcus aureus, 18 h, pH 7
Procedure: as §1

S. aureus smith = test: In vitro antibacterial MIC; type: cell-based; conditions: Staphylococcus aureus, pH 7; S. aureus smith; two-fold serial dilution, nutrient agar pH7, 32° C., 18 hours; read-out: MIC
Procedure: as §1

S. epidermidis 11-1230 = test: In vitro antibacterial MIC; type: cell-based; conditions: Staphylococcus epidermidis, 111230, pH 7; S. epidermidis 11-1230; nutrient agar pH7, 32° C., 18 hours; read-out: MIC
Procedure: as §1

S. marcescens IPM-15 = test: In vitro antibacterial MIC; type: cell-based; conditions: Serratia marcescens, IPM15, pH 7; S. marcescens IPM-15; nutrient agar pH7, 32° C., 18 hours; read-out: MIC
Procedure: as §1

S. marcescens IPM-16 = test: In vitro antibacterial MIC; type: cell-based; conditions: Serratia marcescens, IPM16, 18 h, pH 7
Procedure: as §1

X. maltophilia GN12873 = test: In vitro antibacterial MIC; type: cell-based; conditions: Stenotrophomonas maltophilia, pH 7, nutrient agar pH7, 32° C., 18 hours
Procedure: as §1

X. maltophilia No. 661 = test: In vitro antibacterial MIC; type: cell-based; conditions: Stenotrophomonas maltophilia, pH 7, nutrient agar pH7, 32° C., 18 hours
Procedure: as §1

[1] = system: Candida albicans ATCC 38247; test: In vitro antifungal MIC; type: cell-based; conditions: ATCC38247, pH 7; Candida albicans ATCC 38247, amphotericin resistant strain; yeast morphology agar pH7.0, 28° C., 40 hours; read-out: MIC
Procedure: (§2) The antifungal MICs of dynemicin C and its triacetate were determined by an agar dilution method on yeast morphology agar adjusted to pH7.0 with 1/15M phosphate buffer. A 5 μl aliquot of fungal suspension containing 10^6 cells/ml was inoculated onto the surface of the antibiotic-containing agar plates with a multiinoculator.

[2] = system: Cryptococcus neoformans D49; test: In vitro antifungal MIC; type: cell-based; conditions: Cryptococcus neoformans, D49, 40 h, pH 7
Procedure: as §2

C. neoformans IAM4514 = test: In vitro antifungal MIC; type: cell-based, Cryptococcus neoformans; conditions: Cryptococcus neoformans, IAM4514, 40 h, pH 7
Procedure: as §2

[3] = system: B16-F10 (murine melanoma) cells; test: In vitro cytotoxicity; type: cell-based; conditions: Mus musculus, 72 hours, 37° C., neutral red, 540 nm
Procedure: Dynemicin C and its triacetate derivative were tested for in vitro cytotoxicity against murine and human tumor cell lines. Dynemicin A and its triacetate derivative were used as reference compounds. B16-F10 (murine melanoma) cells were grown to the logarithmic phase in enriched Eagle minimum essential medium (MEM) supplemented with fetal calf serum (FCS, 10%) and kanamycin (60 mcg/ml) and HCT-116 (human colon carcinoma) cells in Maccoy's 5A medium supplemented with FCS (10%), penicillin (100 μ/ml) and streptomycin (100 mcg/ml), and were harvested and inoculated into wells of the 96- or 24-well tissue culture plate with test materials at concentrations of 1.5×10^4, 1.3×10^4, 1.3×10^4, 2.5×10^4 and 3.0×10^4 cells/ml., respectively. They were incubated at 37° C. in a humidified atmosphere of 5% CO2 and 95% air for 72 hours. The cytotoxic activities were determined colorimetrically at 540 nm after staining viable cells with 0.006% neutral red solution.

NCC[C@H](O)C(=O)N[C@@H]1C[C@H](N)[C@@H](O[C@H]2O[C@H](CN)[C@@H](O)[C@H](O)[C@H]2O)[C@H](O)[C@H]1O[C@H]1O[C@H](CO)[C@@H](O)[C@H](N)[C@H]1O [Amikacin, reference compound]
MIC (E. cloacae IPM-12): 25 µg/mL (≈ 42.7 µM)
MIC (E. coli 255): 6.3 µg/mL (≈ 10.8 µM)
MIC (E. coli Juhl A15119): 12.5 µg/mL (≈ 21.3 µM)
MIC (E. faecalis A9808): 50 µg/mL (≈ 85.4 µM)
MIC (E. faecium A24817): 100 µg/mL (≈ 171 µM)
MIC (K. pneumoniae PCI 602): 1.6 µg/mL (≈ 2.73 µM)
MIC (M. luteus PCI 1001): 3.1 µg/mL (≈ 5.29 µM)
MIC (M. morganii I510): 25 µg/mL (≈ 42.7 µM)
MIC (P. aeruginosa A20599): 1.6 µg/mL (≈ 2.73 µM)
MIC (P. aeruginosa A9843A): 3.1 µg/mL (≈ 5.29 µM)
MIC (P. aeruginosa IPM-8): 6.3 µg/mL (≈ 10.8 µM)
MIC (P. aeruginosa IPM-9): 1.6 µg/mL (≈ 2.73 µM)
MIC (P. aeruginosa KKA19): 3.1 µg/mL (≈ 5.29 µM)
MIC (P. cepecia A21213): > 100 µg/mL
MIC (P. cepecia No. 651): > 100 µg/mL
MIC (P. mirabilis IFO 3849): 25 µg/mL (≈ 42.7 µM)
MIC (P. rettgeri IPM-14): 12.5 µg/mL (≈ 21.3 µM)
MIC (P. vulgaris IPM-13): 6.3 µg/mL (≈ 10.8 µM)
MIC (S. aureus A15036 (MRSA)): 3.1 µg/mL (≈ 5.29 µM)
MIC (S. aureus IPM-24 (MRSA)): 100 µg/mL (≈ 171 µM)
MIC (S. aureus smith): 1.6 µg/mL (≈ 2.73 µM)
MIC (S. epidermidis 11-1230): 25 µg/mL (≈ 42.7 µM)
MIC (S. marcescens IPM-15): 12.5 µg/mL (≈ 21.3 µM)
MIC (S. marcescens IPM-16): 100 µg/mL (≈ 171 µM)
MIC (X. maltophilia GN12873): > 100 µg/mL
MIC (X. maltophilia No. 661): > 100 µg/mL

C[C@@H]1[C@H](O)[C@@H](C)/C=C/C=C/C=C/C=C/C=C/C=C/C=C/[C@H](O[C@@H]2O[C@H](C)[C@@H](O)[C@H](N)[C@@H]2O)C[C@@H]2O[C@](O)(C[C@@H](O)C[C@@H](O)[C@H](O)CC[C@@H](O)C[C@@H](O)CC(=O)O[C@H]1C)C[C@H](O)[C@H]2C(=O)O [Amphotericin B, reference compound]
MIC [1]: 50 µg/mL (≈ 54.1 µM)
MIC [2]: 0.2 µg/mL (≈ 0.216 µM)
MIC (C. neoformans IAM4514): 0.4 µg/mL (≈ 0.433 µM)

COC1=C(C(=O)O)C(C)C23OC24c2cc(OC(C)=O)c5c(c2NC3C#CC=CC#CC14)C(=O)c1c(OC(C)=O)ccc(OC(C)=O)c1C5=O (stereo not drawn) [Dynemicin A acetate, reference compound]
IC50 [3]: 0.0007 µg/mL
